The target in data set [1] is Cannabinoid receptor 1 (Homo sapiens, UniProt P21554). In words: Displacement of [3H]CP-55940 from human recombinant CB1R expressed in CHO cells. The format is cell-based. For orientation: Loss of bound radioactivity is the signal in a displacement assay; it reports binding, not function.
The nature of data set [2]: Distribution coefficient, log D at pH 7.3. As to conditions: octanol/water. In kind it is physicochemical.
Data set [3] is described as follows: Ratio of drug level in brain to plasma in Sprague-Dawley rat at 1 mg/kg, iv after 15 mins. In kind it is ADME, organism-based. More on the design: dose 1 mg/kg, route intravenous. As to conditions: brain and plasma.
Data set [4] can be described thus: Half life in Sprague-Dawley rat at 1 mg/kg, iv. In kind it is ADME, organism-based. The arrangement: dose 1 mg/kg, route intravenous. Conditions: in vivo.
Data set [5] concerns the target Cannabinoid receptor 2 (Homo sapiens, UniProt P34972). In words: Agonist activity at human CB2R. The format is functional.
A short description of data set [6]: Clearance in Sprague-Dawley rat at 1 mg/kg, iv. The format is ADME, organism-based. More on the design: dose 1 mg/kg, route intravenous. Conditions: in vivo.

Structures are written as SMILES.

This is an account of results in ChEMBL document CHEMBL1146232, “Discovery of N-{(1S,2S)-2-(3-cyanophenyl)- 3-[4-(2-[18F]fluoroethoxy)phenyl]-1-methylpropyl}- 2-methyl-2-[(5-methylpyridin-2-yl)oxy]propanamide, a cannabinoid-1 receptor positron emission tomography tracer suitable for clinical use” (J Med Chem, 2007).

As usually defined, the IC50 is the point on the concentration scale where inhibition reaches its midpoint. By logD is commonly meant the decadic logarithm of the distribution of all forms, ionised or not, between an organic phase and buffer at a given pH. Lower therefore signals lower lipophilicity. Broadly, the Kp is tissue or fluid exposure divided by exposure in the circulation. Usually half-life stands for the time in which the quantity being followed falls by half. A low value points to fast loss. Usually clearance stands for a measure of how efficiently the substance is removed, as volume per time. Low values mean inefficient removal, high ones efficient removal.

Sequence of Cannabinoid receptor 1 (P21554 whole entry): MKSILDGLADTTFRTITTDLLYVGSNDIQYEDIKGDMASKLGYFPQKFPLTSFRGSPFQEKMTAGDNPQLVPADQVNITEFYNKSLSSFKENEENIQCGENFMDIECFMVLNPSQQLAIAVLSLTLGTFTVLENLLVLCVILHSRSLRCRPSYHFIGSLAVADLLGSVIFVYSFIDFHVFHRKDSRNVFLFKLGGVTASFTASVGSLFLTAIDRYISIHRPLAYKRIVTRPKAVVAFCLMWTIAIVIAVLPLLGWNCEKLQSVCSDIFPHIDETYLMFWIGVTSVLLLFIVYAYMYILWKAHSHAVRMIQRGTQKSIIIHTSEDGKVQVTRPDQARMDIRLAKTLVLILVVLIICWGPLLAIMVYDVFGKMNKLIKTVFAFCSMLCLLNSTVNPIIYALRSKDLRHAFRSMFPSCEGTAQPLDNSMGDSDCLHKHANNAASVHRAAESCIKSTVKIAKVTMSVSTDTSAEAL
Sequence of Cannabinoid receptor 2 (P34972 whole entry): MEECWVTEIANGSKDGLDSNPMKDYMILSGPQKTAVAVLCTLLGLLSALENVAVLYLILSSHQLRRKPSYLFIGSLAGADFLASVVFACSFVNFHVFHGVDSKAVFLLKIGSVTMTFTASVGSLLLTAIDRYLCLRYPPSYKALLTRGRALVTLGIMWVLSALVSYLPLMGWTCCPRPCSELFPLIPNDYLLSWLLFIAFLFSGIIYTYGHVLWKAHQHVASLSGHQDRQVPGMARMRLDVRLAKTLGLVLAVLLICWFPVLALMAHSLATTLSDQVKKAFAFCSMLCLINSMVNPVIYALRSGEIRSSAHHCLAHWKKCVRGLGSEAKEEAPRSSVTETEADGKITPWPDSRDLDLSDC

Turning to `C[C@H](NC(=O)C(C)(C)Oc1ccc(C(F)(F)F)cn1)[C@@H](Cc1ccc(OCF)cc1)c1cc(F)cc(C#N)c1`, the IC50 in data set [1] came out at 2000 pM. In data set [2], this compound came in with a logD of 4.7.

Take `C[C@H](NC(=O)C(C)(C)Oc1ccc(C#N)cn1)[C@@H](Cc1ccc(OCCF)cc1)c1cccc(C#N)c1`: the half-maximal inhibitory concentration (IC50) in data set [1] is 1800 pM. Besides, the logD in data set [2] was determined as 3.3.

On to `C[C@H](NC(=O)C(C)(C)Oc1ccc(C(F)(F)F)cn1)[C@@H](Cc1ccc(Cl)cc1)c1cccc(C#N)c1` [TARANABANT], for which, in data set [2], the log distribution coefficient (logD) worked out at 5.2.

For `C[C@H](NC(=O)C(C)(C)Oc1ccc(Cl)cn1)[C@@H](Cc1ccc(OCCF)cc1)c1cccc(C#N)c1`, the concentration for half-maximal inhibition (IC50) in data set [1] amounted to 800 pM. Besides, the log distribution coefficient (logD) in data set [2] is 4.2.

On to `C[C@H](NC(=O)C(C)(C)Oc1cc(C(F)(F)F)ncn1)[C@@H](Cc1ccc(OCCF)cc1)c1cccc(C#N)c1`, for which, in data set [1], the half-inhibitory concentration (IC50) was 1800 pM. Moreover, the log distribution coefficient (logD) in data set [2] is 3.9.

Turning to `Cc1ccc(OC(C)(C)C(=O)N[C@@H](C)[C@@H](Cc2ccc(OCCF)cc2)c2cccc(C#N)c2)nc1`, the IC50 was 700 pM in data set [1] and 44000 pM in data set [5]. Besides, in data set [3], the Kp at 0.25 h came out at 0.5. The compound further showed a half-life in data set [4] of 1.4 h. In data set [6], the clearance came to 81 mL/min/kg. The log distribution coefficient (logD) in data set [2] amounted to 4.

Regarding `COc1ccc(C[C@@H](c2cc(F)cc(C#N)c2)[C@H](C)NC(=O)C(C)(C)Oc2ccc(C(F)(F)F)cn2)cc1`, in data set [1], the concentration for half-maximal inhibition (IC50) was 900 pM. In data set [2], this compound had a log distribution coefficient (logD) of 4.8.

Regarding `C[C@H](NC(=O)C(C)(C)Oc1ccccn1)[C@@H](Cc1ccc(OCCF)cc1)c1cccc(C#N)c1`, the IC50 in data set [1] stood at 1300 pM. This compound returned a log distribution coefficient (logD) in data set [2] of 3.7.

As for `C[C@H](NC(=O)C(C)(C)Oc1ccc(C(F)(F)F)cn1)[C@@H](Cc1ccc(OCCF)cc1)c1cccc(C#N)c1`, in data set [1], the IC50 amounted to 900 pM. The logD in data set [2] was 4.4.

`C[C@H](NC(=O)C(C)(C)Oc1ccc(C(F)(F)F)cn1)[C@@H](Cc1ccc(OCCF)cc1)c1cc(F)cc(C#N)c1`: the IC50 in data set [1] was 900 pM. This compound also showed a logD in data set [2] of 4.6.

As to `Cc1ccnc(OC(C)(C)C(=O)N[C@@H](C)[C@@H](Cc2ccc(OCCF)cc2)c2cccc(C#N)c2)c1`, in data set [1], the IC50 came out at 470 pM. The pH-dependent lipophilicity (logD) in data set [2] came to 4.1.

`C[C@H](NC(=O)C(C)(C)Oc1cc(C(F)(F)F)ccn1)[C@@H](Cc1ccc(OCCF)cc1)c1cccc(C#N)c1`: the half-inhibitory concentration (IC50) in data set [1] was 770 pM. In data set [2], this compound had a pH-dependent lipophilicity (logD) of 4.6.

With `Cc1ccc(OC(C)(C)C(=O)N[C@@H](C)[C@@H](Cc2ccc(OCC[18F])cc2)c2cccc(C#N)c2)nc1`, the IC50 in data set [1] was 730 pM. In data set [2], this compound yielded a log distribution coefficient (logD) of 4.
